# Experimental data from patent publication US8735414B2 (priority 2009, dated 2014).
# What was measured:
# [1] = system: bicistronic HCV replicon (replicon RNA, GenBank Accession No. AJ242654); experiment: HCV Replicon Assay; type: cell-based; settings: Hepatitis C virus, 72 h, read-out: Replicon IC50
SMILES,IC50 [1] [nM],melting point
"Cc1ccc(-n2c(-c3ccc(S(=O)(=O)NC(CF)CF)cn3)c(C#N)c3cc(F)ccc32)cc1 [compound 356, 6-[3-cyano-5-fluoro-1-(4-methylphenyl)-1H-indol-2-yl]-N-(1,3-difluoropropan-2-yl)pyridine-3-sulfonamide]",< 500,208 to 210 °C
"CCc1cc2c(cc1F)c(C#N)c(-c1ccc(S(=O)(=O)NCC3CCC3)cn1)n2-c1ncccn1 [compound 953, 6-[3-cyano-6-ethyl-5-fluoro-1-(pyrimidin-2-yl)-1H-indol-2-yl]-N-(cyclobutylmethyl)pyridine-3-sulfonamide]",< 500,207 to 214 °C
"CCCS(=O)(=O)Nc1ccc(-c2c(C#N)c3ccc(Oc4ncccn4)cc3n2C2CCC2)nc1 [compound 271, N-{6-[3-cyano-1-cyclobutyl-6-(pyrimidin-2-yloxy)-1H-indol-2-yl]pyridin-3-yl}propane-1-sulfonamide]",500 to 2000,206 to 208 °C
"N#Cc1c(-c2ccc(S(=O)(=O)NC(CF)CF)cn2)n(C2CCC2)c2ccc(F)cc12 [compound 29, 6-(3-cyano-1-cyclobutyl-5-fluoro-1H-indol-2-yl)-N-(1,3-difluoropropan-2-yl)pyridine-3-sulfonamide]",< 500,206 to 208 °C
"Cc1ccc2c(C#N)c(-c3ncc(S(=O)(=O)NC(CF)CF)cn3)n(C3CCCC3)c2c1 [compound 135, 2-(3-cyano-1-cyclopentyl-6-methyl-1H-indol-2-yl)-N-(1,3-difluoropropan-2-yl)pyrimidine-5-sulfonamide]",< 500,229 to 231 °C
"CC(C)(C)S(=O)(=O)Nc1ccc(-c2c(C(N)=O)c3c(F)cc(C4CC4)cc3n2C2CCCCC2)cn1 [compound 1088, 2-{6-[(tert-butylsulfonyl)amino]pyridin-3-yl}-1-cyclohexyl-6-cyclopropyl-4-fluoro-1H-indole-3-carboxamide]",< 500,290 to 294 °C
"Cc1cc2c(cc1F)c(C#N)c(-c1ccc(S(=O)(=O)N[C@@H](C)C(F)(F)F)cn1)n2-c1ccncc1F [compound 1014, 6-[3-cyano-5-fluoro-1-(3-fluoropyridin-4-yl)-6-methyl-1H-indol-2-yl]-N-[(2S)-1,1,1-trifluoropropan-2-yl]pyridine-3-sulfonamide]",< 500,204.2 to 210.5 °C
"CC(C)NS(=O)(=O)c1cnc(-c2c(C#N)c3cc(Cl)ccc3n2C2CCC2)nc1 [compound 114, 2-(5-chloro-3-cyano-1-cyclobutyl-1H-indol-2-yl)-N-(propan-2-yl)pyrimidine-5-sulfonamide]",< 500,> 198 °C (dec.)
"C[C@@H](NS(=O)(=O)c1ccc(-c2c(C#N)c3ccc(Cl)cc3n2-c2ccccn2)nc1)C(F)(F)F [compound 489, 6-[6-chloro-3-cyano-1-(pyridin-2-yl)-1H-indol-2-yl]-N-[(2R)-1,1,1-trifluoropropan-2-yl]pyridine-3-sulfonamide]",500 to 2000,198 to 199 °C
"Cc1cc2c(cc1F)c(C(N)=O)c(-c1ccc(S(=O)(=O)NC(C)(C)C)cn1)n2C1CCC1 [compound 800, 2-[5-(tert-butylsulfamoyl)pyridin-2-yl]-1-cyclobutyl-5-fluoro-6-methyl-1H-indole-3-carboxamide]",< 500,189 to 193 °C
"C[C@H](NS(=O)(=O)c1cnc(-c2c(C#N)c3cc(F)ccc3n2CC2CC2)nc1)C1CC1 [compound 531, 2-[3-cyano-1-(cyclopropylmethyl)-5-fluoro-1H-indol-2-yl]-N-[(1S)-1-cyclopropylethyl]pyrimidine-5-sulfonamide]",< 500,184 to 188 °C
"C[C@@H](NS(=O)(=O)c1ccc(-c2c(C#N)c3ccc(Cl)cc3n2C2CCCCC2)nc1)C(F)(F)F [compound 514, 6-(6-chloro-3-cyano-1-cyclohexyl-1H-indol-2-yl)-N-[(2R)-1,1,1-trifluoropropan-2-yl]pyridine-3-sulfonamide]",< 500,218 to 223 °C
"C[C@H](NS(=O)(=O)c1cnc(-c2c(C#N)c3ccc(OC(F)F)cc3n2C2CCCCC2)nc1)C1CC1 [compound 471, 2-[3-cyano-1-cyclohexyl-6-(difluoromethoxy)-1H-indol-2-yl]-N-[(1S)-1-cyclopropylethyl]pyrimidine-5-sulfonamide]",< 500,150 to 152 °C
"C[C@H](NS(=O)(=O)c1ccc(-c2c(C#N)c3cc(F)ccc3n2-c2ccc(C(F)(F)F)cn2)nc1)C(F)(F)F [compound 724, 6-{3-cyano-5-fluoro-1-[5-(trifluoromethyl)pyridin-2-yl]-1H-indol-2-yl}-N-[(2S)-1,1,1-trifluoropropan-2-yl]pyridine-3-sulfonamide]",500 to 2000,216 to 218 °C
"CC(C)NS(=O)(=O)c1cnc(-c2c(C(N)=O)c3cc(Cl)ccc3n2C2CCC2)nc1 [compound 745, 5-chloro-1-cyclobutyl-2-[5-(propan-2-ylsulfamoyl)pyrimidin-2-yl]-1H-indole-3-carboxamide]",< 500,245 to 247 °C
"CC(C)NS(=O)(=O)c1ccc(-c2c(C#N)c3ccc(OC(F)(F)F)cc3n2C(C)C)nc1 [compound 12, 6-[3-cyano-1-(propan-2-yl)-6-(trifluoromethoxy)-1H-indol-2-yl]-N-(propan-2-yl)pyridine-3-sulfonamide]",500 to 2000,160 to 162 °C
"N#Cc1c(-c2ccc(S(=O)(=O)NC(CF)CF)cn2)n(-c2ccc(F)cc2)c2cc(OC(F)F)ccc12 [compound 228, 6-[3-cyano-6-(difluoromethoxy)-1-(4-fluorophenyl)-1H-indol-2-yl]-N-(1,3-difluoropropan-2-yl)pyridine-3-sulfonamide]",< 500,192 to 198 °C
"CC(C)c1ccc2c(C#N)c(-c3ncc(S(=O)(=O)NC(CF)CF)cn3)n(C3CCC3)c2c1 [compound 186, 2-[3-cyano-1-cyclobutyl-6-(propan-2-yl)-1H-indol-2-yl]-N-(1,3-difluoropropan-2-yl)pyrimidine-5-sulfonamide]",< 500,214 to 222 °C
"Cc1cc2c(cc1F)c(C#N)c(-c1ccc(S(=O)(=O)N[C@@H](C)C(F)(F)F)cn1)n2-c1nncs1 [compound 977, 6-[3-cyano-5-fluoro-6-methyl-1-(1,3,4-thiadiazol-2-yl)-1H-indol-2-yl]-N-[(2S)-1,1,1-trifluoropropan-2-yl]pyridine-3-sulfonamide]",< 500,232 to 240 °C
"CC(C)NS(=O)(=O)c1cnc(-c2c(C#N)c3ccc(C(C)C)cc3n2C2CCC2)nc1 [compound 185, 2-[3-cyano-1-cyclobutyl-6-(propan-2-yl)-1H-indol-2-yl]-N-(propan-2-yl)pyrimidine-5-sulfonamide]",< 500,220 to 222 °C
"Cc1ccc2c(C#N)c(-c3ncc(S(=O)(=O)N[C@H](C)C(F)(F)F)cn3)n(C3CCC3)c2c1 [compound 181, 2-(3-cyano-1-cyclobutyl-6-methyl-1H-indol-2-yl)-N-[(2R)-1,1,1-trifluoropropan-2-yl]pyrimidine-5-sulfonamide]",< 500,143 to 145 °C
"CC(C)Oc1ccc2c(C#N)c(-c3ccc(NS(C)(=O)=O)nn3)n(C3CCC3)c2c1 [compound 275, N-{6-[3-cyano-1-cyclobutyl-6-(propan-2-yloxy)-1H-indol-2-yl]pyridazin-3-yl}methanesulfonamide]",2000 to 5000,225 to 227 °C
"N#Cc1ccc2c(C#N)c(-c3ncc(S(=O)(=O)NC(CF)CF)cn3)n(C3CCC3)c2c1 [compound 466, 2-(3,6-dicyano-1-cyclobutyl-1H-indol-2-yl)-N-(1,3-difluoropropan-2-yl)pyrimidine-5-sulfonamide]",< 500,240 to 241 °C
"Cc1ccc2c(c1)c(C#N)c(-c1ccc(S(=O)(=O)NC(CF)CF)cn1)n2-c1ccccn1 [compound 504, 6-[3-cyano-5-methyl-1-(pyridin-2-yl)-1H-indol-2-yl]-N-(1,3-difluoropropan-2-yl)pyridine-3-sulfonamide]",< 500,177 to 179 °C
"CC(C)(C)S(=O)(=O)Nc1ccc(-c2c(C(N)=O)c3c(F)cc(C4CC4)cc3n2C2CCCCC2)nc1 [compound 1097, 2-{5-[(tert-butylsulfonyl)amino]pyridin-2-yl}-1-cyclohexyl-6-cyclopropyl-4-fluoro-1H-indole-3-carboxamide]",< 500,275 to 285 °C (dec.)
"C[C@H](NS(=O)(=O)c1cnc(-c2c(C#N)c3ccc(F)cc3n2C2CCCC2)nc1)C(F)(F)F [compound 495, 2-(3-cyano-1-cyclopentyl-6-fluoro-1H-indol-2-yl)-N-[(2S)-1,1,1-trifluoropropan-2-yl]pyrimidine-5-sulfonamide]",2000 to 5000,217 to 219 °C
"CC(C)(C)S(=O)(=O)Nc1ccc(-c2c(C#N)c3ccc(OC(F)F)cc3n2C2CCC2)cn1 [compound 295, N-{5-[3-cyano-1-cyclobutyl-6-(difluoromethoxy)-1H-indol-2-yl]pyridin-2-yl}-2-methylpropane-2-sulfonamide]",2000 to 5000,239 to 240 °C
"Cc1cncc(-n2c(-c3ccc(S(=O)(=O)N[C@@H](C)C(F)(F)F)cn3)c(C#N)c3cc(F)c(C)cc32)n1 [compound 915, 6-[3-cyano-5-fluoro-6-methyl-1-(6-methylpyrazin-2-yl)-1H-indol-2-yl]-N-[(2S)-1,1,1-trifluoropropan-2-yl]pyridine-3-sulfonamide]",< 500,211 to 215 °C
"Cc1ccc2c(C#N)c(-c3ncc(S(=O)(=O)N[C@H](C)C(F)(F)F)cn3)n(C3CCCC3)c2c1 [compound 182, 2-(3-cyano-1-cyclopentyl-6-methyl-1H-indol-2-yl)-N-[(2R)-1,1,1-trifluoropropan-2-yl]pyrimidine-5-sulfonamide]",< 500,116 to 118 °C
